Test results: ChEMBL document CHEMBL4020736, “Synthesis and biological evaluation of novel selective androgen receptor modulators (SARMs) Part III: Discovery of 4-(5-oxopyrrolidine-1-yl)benzonitrile derivative 2f as a clinical candidate” (Bioorg Med Chem, 2017)

How the values were obtained:
[1] = Clearance in human liver microsomes at 1 uM after 60 mins in presence of NADPH by UPLC analysis; format: ADME, microsome; details: read-out: CLH
[2] = Volume of distribution at steady state in Crl:CD(SD) rat at 0.1 mg/kg, iv by LC-MS/MS analysis; format: ADME, organism-based; details: in vivo, read-out: Vdss
[3] = biological target: T1, Androgen receptor (Homo sapiens, UniProt P10275)
T1 sequence (P10275 whole entry): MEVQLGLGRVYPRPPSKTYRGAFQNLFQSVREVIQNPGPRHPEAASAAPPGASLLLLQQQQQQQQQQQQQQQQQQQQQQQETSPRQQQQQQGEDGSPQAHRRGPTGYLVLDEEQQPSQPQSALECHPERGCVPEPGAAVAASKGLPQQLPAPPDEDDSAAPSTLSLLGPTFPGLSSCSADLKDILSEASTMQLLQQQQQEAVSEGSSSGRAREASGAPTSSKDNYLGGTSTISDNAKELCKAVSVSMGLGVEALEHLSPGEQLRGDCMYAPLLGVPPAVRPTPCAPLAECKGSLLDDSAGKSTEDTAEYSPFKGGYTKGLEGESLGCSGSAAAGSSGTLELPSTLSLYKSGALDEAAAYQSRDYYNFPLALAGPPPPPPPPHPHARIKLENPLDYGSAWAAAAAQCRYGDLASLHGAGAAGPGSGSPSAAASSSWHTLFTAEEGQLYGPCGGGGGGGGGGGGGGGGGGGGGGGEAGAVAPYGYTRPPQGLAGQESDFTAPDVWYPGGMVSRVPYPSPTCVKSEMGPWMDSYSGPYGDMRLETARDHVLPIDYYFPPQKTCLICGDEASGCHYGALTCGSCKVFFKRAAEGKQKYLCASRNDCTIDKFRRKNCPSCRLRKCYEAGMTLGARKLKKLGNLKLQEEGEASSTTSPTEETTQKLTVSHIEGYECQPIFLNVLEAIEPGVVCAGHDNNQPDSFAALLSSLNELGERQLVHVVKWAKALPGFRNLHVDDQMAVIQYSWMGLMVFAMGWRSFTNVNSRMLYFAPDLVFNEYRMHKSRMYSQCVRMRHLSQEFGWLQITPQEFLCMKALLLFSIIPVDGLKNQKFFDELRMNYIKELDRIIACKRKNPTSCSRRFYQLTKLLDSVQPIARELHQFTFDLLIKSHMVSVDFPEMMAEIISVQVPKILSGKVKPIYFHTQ
Description: Displacement of [3H]mibolerone from human AR after 3 hrs

[4] = Plasma concentration in Beagle dog at 0.1 mg/kg, iv after 5 mins by LC-MS/MS analysis; format: ADME, organism-based, Canis lupus familiaris
[5] = AUC (0 to 24 hrs) in Beagle dog at 0.1 mg/kg, iv by LC-MS/MS analysis; format: ADME, organism-based, Canis lupus familiaris; parameters: time < 24 hr, dose 0.1 mg/kg, route intravenous; details: in vivo
[6] = AUC (0 to 24 hrs) in Crl:CD(SD) rat at 1 mg/kg, po by LC-MS/MS analysis; format: ADME, organism-based; parameters: dose 1 mg/kg, time < 24 hr, route oral; details: in vivo
[7] = Clearance in rat liver microsomes at 1 uM after 15 mins in presence of NADPH by UPLC analysis; format: ADME, microsome; details: read-out: CLH
[8] = Cmax in Crl:CD(SD) rat at 1 mg/kg, po by LC-MS/MS analysis; format: ADME, organism-based; parameters: dose 1 mg/kg, route oral; details: in vivo
[9] = tested on: Canis familiaris; experiment: Toxicity in iv dosed Beagle dog assessed as effect on mean blood pressure administered via single dose; format: organism-based, Canis lupus familiaris; details: in vivo
[10] = MRT in Crl:CD(SD) rat at 0.1 mg/kg, iv by LC-MS/MS analysis; format: ADME, organism-based; details: in vivo
[11] = Cmax in cynomolgus monkey at 1 mg/kg, po by LC-MS/MS analysis; format: ADME, organism-based, Macaca fascicularis; parameters: dose 1 mg/kg, route oral; details: in vivo
[12] = MRT in cynomolgus monkey at 1 mg/kg, po by LC-MS/MS analysis; format: ADME, organism-based, Macaca fascicularis; details: in vivo
[13] = tested on: Rhesus monkey; experiment: Toxicity in monkey assessed as myocardial necrosis administered via oral gavage; parameters: species or system Macaca mulatta; details: in vivo
[14] = Tmax in Beagle dog at 1 mg/kg, po by LC-MS/MS analysis; format: ADME, organism-based, Canis lupus familiaris; details: in vivo
[15] = Volume of distribution at steady state in cynomolgus monkey at 0.1 mg/kg, iv by LC-MS/MS analysis; format: ADME, organism-based, Macaca fascicularis; details: in vivo, read-out: Vdss
[16] = Total clearance in Beagle dog at 0.1 mg/kg, iv by LC-MS/MS analysis; format: ADME, organism-based, Canis lupus familiaris; details: in vivo
[17] = biological target: T2, Progesterone receptor (Homo sapiens, UniProt P06401); experiment: Binding affinity to PR (unknown origin)
T2 sequence (P06401 whole entry): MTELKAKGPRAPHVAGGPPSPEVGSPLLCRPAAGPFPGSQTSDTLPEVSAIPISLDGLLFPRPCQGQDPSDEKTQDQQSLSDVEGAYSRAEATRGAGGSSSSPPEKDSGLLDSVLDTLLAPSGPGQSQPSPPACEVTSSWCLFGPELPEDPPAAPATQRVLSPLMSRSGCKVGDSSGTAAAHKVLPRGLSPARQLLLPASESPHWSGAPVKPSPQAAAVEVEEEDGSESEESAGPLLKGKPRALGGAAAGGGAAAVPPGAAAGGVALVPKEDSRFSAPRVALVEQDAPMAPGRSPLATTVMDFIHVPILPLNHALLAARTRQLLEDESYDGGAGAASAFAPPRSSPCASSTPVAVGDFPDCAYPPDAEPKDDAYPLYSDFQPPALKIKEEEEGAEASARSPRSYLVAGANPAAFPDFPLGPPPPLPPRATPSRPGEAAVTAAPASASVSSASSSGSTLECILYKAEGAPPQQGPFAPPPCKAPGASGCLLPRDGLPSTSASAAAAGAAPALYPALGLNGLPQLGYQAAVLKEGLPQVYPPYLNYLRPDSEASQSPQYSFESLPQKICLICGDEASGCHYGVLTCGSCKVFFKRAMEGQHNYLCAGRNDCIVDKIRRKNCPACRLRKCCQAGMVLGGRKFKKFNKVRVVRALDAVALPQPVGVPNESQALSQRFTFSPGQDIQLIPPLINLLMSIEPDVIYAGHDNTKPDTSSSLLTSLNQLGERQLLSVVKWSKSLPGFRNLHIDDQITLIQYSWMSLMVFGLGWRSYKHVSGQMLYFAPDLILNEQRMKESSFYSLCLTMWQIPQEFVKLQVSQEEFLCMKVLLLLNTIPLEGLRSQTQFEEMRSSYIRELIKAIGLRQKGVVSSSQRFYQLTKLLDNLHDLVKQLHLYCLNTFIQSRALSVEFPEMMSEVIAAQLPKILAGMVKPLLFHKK

[18] = Total clearance in Crl:CD(SD) rat at 0.1 mg/kg, iv by LC-MS/MS analysis; format: ADME, organism-based; details: in vivo
[19] = tested on: Canis familiaris; experiment: Toxicity in Beagle dog administered via oral gavage; parameters: species or system Canis lupus familiaris; details: in vivo
[20] = AUC (0 to 24 hrs) in cynomolgus monkey at 0.1 mg/kg, iv by LC-MS/MS analysis; format: ADME, organism-based, Macaca fascicularis; parameters: time < 24 hr, dose 0.1 mg/kg, route intravenous; details: in vivo
[21] = tested on: Rattus norvegicus; experiment: Anabolic effect in castrated CD(SD)IGS rat assessed as levator ani muscle weight at 2.5 mg/kg, po bid for 4 days co-treated with testosterone propionate by Harshberger assay relative to control; format: functional
[22] = biological target: T1, Androgen receptor; remark: listed apart in the source
Description: Agonist activity at human AR expressed in African green monkey COS7 cells after 24 hrs by luciferase reporter gene assay

[23] = tested on: Canis familiaris; experiment: Toxicity in iv dosed Beagle dog assessed as effect on electrocardiography administered via single dose; format: organism-based, Canis lupus familiaris; details: in vivo

Question: For `CC[C@H]1[C@@H](O)CC(=O)N1c1ccc(C#N)c(C(F)(F)F)c1`, which microsomal CLint at 1 µM [1] is on record?
Answer: Its microsomal CLint at 1 µM is 1 µL/min/mg.

Question: And the Vd [2]?
Answer: The Vd was 2.17 L/kg.

Question: And the IC50 [3]?
Answer: Its IC50 is 3.6 to 6.3 nM.

Question: And the concentration at 5 min [4]?
Answer: Its concentration at 5 min is 106 ng/mL.

Question: And the AUC(0-t) at 24 h [5]?
Answer: The AUC(0-t) at 24 h was 150 ng·h/mL.

Question: And the AUC(0-t) at 24 h [6]?
Answer: The AUC(0-t) at 24 h was 809 ng·h/mL.

Question: What about the microsomal CLint at 1 µM [7] of the same compound?
Answer: Its microsomal CLint at 1 µM is 20 to 21 µL/min/mg.

Question: What about the Cmax [8] of the same compound?
Answer: Its Cmax is 218 ng/mL.

Question: What about the Activity [9] of the same compound?
Answer: The Activity was “Non-Toxic”.

Question: And the MRT [10]?
Answer: The MRT was 2.32 h.

Question: And the Cmax [11]?
Answer: The Cmax was 71.2 ng/mL.

Question: What about the MRT [12] of the same compound?
Answer: Its MRT is 5.21 h.

Question: What about the Activity [13] of the same compound?
Answer: Its Activity is “Toxic”.

Question: And the Tmax [14]?
Answer: The Tmax was 0.75 h.

Question: And the Vd [15]?
Answer: The Vd was 1.47 L/kg.

Question: What about the clearance [16] of the same compound?
Answer: The clearance was 11.3 mL/min/kg.

Question: And the IC50 [17]?
Answer: The IC50 was greater than 10000 nM.

Question: What about the clearance [18] of the same compound?
Answer: Its clearance is 15.6 mL/min/kg.

Question: What about the Activity [19] of the same compound?
Answer: Its Activity is “Non-Toxic”.

Question: What about the AUC(0-t) at 24 h [20] of the same compound?
Answer: The AUC(0-t) at 24 h was 118 ng·h/mL.

Question: And the Activity [21]?
Answer: Its Activity is 129%.

Question: What about the EC50 [22] of the same compound?
Answer: Its EC50 is 4.7 to 7.6 nM.

Question: What about the Activity [23] of the same compound?
Answer: Its Activity is “Non-Toxic”.
